What was measured:
Type in all cases: biochemical
[1] = target: T1, Elastase (human neutrophil (HLE)) (Homo sapiens, UniProt P08246); assay: Inhibition of human leukocyte (neutrophil) elastase, progress curve method (methoxy-Suc-Ala-Ala-Pro-Val-pNA substrate); details: for Ki / koff / kon: 25 mM HEPES, 1M NaCl, 0.1% BRIJ 35, pH 6.5, 25° C.; for kinact/KI: pH 6.5, read-out: kobs /[I] Enzyme; for kobs /[I] HLE / kobs /[I] Enzyme: relative selectivity, HLE over HLE
T1 construct: purchased Calbiochem
T1 sequence (P08246 30-267): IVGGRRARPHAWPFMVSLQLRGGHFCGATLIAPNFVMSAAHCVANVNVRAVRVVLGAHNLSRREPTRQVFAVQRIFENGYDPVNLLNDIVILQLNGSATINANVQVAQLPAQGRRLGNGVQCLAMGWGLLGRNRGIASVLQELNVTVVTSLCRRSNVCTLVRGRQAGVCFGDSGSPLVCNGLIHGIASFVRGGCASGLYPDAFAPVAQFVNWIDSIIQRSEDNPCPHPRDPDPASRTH
Method: (§1) Enzymes and their substrates, listed below, were obtained from Calbiochem.
(§2) Enzyme and substrate concentrations were chosen to obtain pseudo first order conditions for the entire timecourse, with uninhibited enzyme maintaining a constant rate of product formation for longer than the fifteen minute sampling time.
(§3) Additional compounds within the scope of the invention were evaluated using the progress curve method of Stein et al. to determine the kinetic constants kon, koff, as well as the pKi and relative selectivity for HLE over other serine proteases.

[2] = target: T2, Elastase (porcine pancreatic) (PPE) (Sus scrofa, UniProt P00772); assay: Inhibition of porcine pancreatic elastase (PPE), progress curve method (Suc-Ala-Ala-Ala-pNA substrate); details: for kinact/KI: pH 7.5, read-out: kobs /[I] Enzyme; for kobs /[I] HLE / kobs /[I] Enzyme: relative selectivity, HLE over PPE
T2 construct: purchased Calbiochem
T2 sequence (P00772 27-266): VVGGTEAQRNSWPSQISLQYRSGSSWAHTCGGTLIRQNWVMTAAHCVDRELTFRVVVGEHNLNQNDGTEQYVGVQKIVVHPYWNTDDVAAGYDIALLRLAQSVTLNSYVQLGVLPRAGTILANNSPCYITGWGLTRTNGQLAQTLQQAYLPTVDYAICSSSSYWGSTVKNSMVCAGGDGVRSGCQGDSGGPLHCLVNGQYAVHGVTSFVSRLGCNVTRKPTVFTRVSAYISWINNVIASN
Method: as §1, §2, §3

[3] = target: T3, Trypsin (bovine pancreatic) (Bos taurus, UniProt P00760); assay: Inhibition of trypsin, progress curve method (Bz-Arg-pNA substrate); details: for kinact/KI: pH 7.5, read-out: kobs /[I] Enzyme; for kobs /[I] HLE / kobs /[I] Enzyme: relative selectivity, HLE over Trypsin
T3 construct: purchased Calbiochem
T3 sequence (P00760 24-246): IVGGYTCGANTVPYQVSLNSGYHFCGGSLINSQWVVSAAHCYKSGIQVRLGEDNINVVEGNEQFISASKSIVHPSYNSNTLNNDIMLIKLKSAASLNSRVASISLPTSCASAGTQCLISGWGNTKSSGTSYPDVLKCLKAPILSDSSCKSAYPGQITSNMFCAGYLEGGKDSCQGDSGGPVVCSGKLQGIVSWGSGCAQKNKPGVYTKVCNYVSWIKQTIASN
Method: as §1, §2, §3

[4] = target: T4, Cathepsin-G (human neutrophil) (Homo sapiens, UniProt P08311); assay: Inhibition of cathepsin G, progress curve method (Suc-Ala-Ala-Pro-Phe-pNA substrate); details: for kinact/KI: pH 6.5, read-out: kobs /[I] Enzyme; for kobs /[I] HLE / kobs /[I] Enzyme: relative selectivity, HLE over Cathepsin G
T4 construct: purchased Calbiochem
T4 sequence (P08311 21-255): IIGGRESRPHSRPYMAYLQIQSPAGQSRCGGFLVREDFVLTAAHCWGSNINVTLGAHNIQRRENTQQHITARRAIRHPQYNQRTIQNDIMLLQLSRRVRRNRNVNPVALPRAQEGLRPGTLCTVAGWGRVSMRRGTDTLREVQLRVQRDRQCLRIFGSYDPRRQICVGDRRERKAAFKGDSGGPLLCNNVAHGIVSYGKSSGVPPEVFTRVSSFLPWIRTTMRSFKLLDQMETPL
Method: as §1
Cathepsin-G (human neutrophil
Suc--Ala--Ala--Pro--Phe--
as §2, §3

[5] = target: T5, α Chymotrypsin (bovine pancreatic) (Bos taurus, UniProt P00766); assay: Inhibition of chymotrypsin, progress curve method (Suc-Gly-Gly-Phe-pNA substrate); details: for kinact/KI: pH 7.5, read-out: kobs /[I] Enzyme; for kobs /[I] HLE / kobs /[I] Enzyme: relative selectivity, HLE over Chymotrypsin
T5 construct: purchased Calbiochem
Method: as §1
Suc--Gly--Gly--Phe--pNA
as §2, §3

Row | SMILES | Ki ([1]; HLE) | koff ([1]; pH 6.5, HLE) | kon ([1]; pH 6.5, HLE) | kon ([1]; HLE) | kinact/KI [2] | kobs /[I] HLE / kobs /[I] Enzyme [2] | kinact/KI [3] | kobs /[I] HLE / kobs /[I] Enzyme [3] | kinact/KI [4] | kobs /[I] HLE / kobs /[I] Enzyme [4] | kinact/KI [5] | kobs /[I] HLE / kobs /[I] Enzyme [5] | koff ([1]; HLE) | kinact/KI [1] | kobs /[I] HLE / kobs /[I] Enzyme [1]
1 | CCOc1nc2ccc(N)c(C)c2c(=O)o1 | 0.0145 nM | 2.3e-05 s⁻¹ | 750000 M⁻¹ s⁻¹ | – | – | – | – | – | – | – | – | – | – | – | –
2 | CCOc1nc2ccc(C(C)NC(=O)[C@@H](NC(=O)OC(C)(C)C)C(C)C)c(C)c2c(=O)o1 (single isomer, unassigned) [7 Isomer A] | 0.0589 nM | 1.8e-05 s⁻¹ | – | 304,000 M^-1 sec^-1 | – | – | – | – | – | – | – | – | – | – | –
3 | CCOc1nc2ccc(C(C)NC(=O)[C@@H](NC(=O)OC(C)(C)C)C(C)C)c(C)c2c(=O)o1 (single isomer, unassigned) [7 Isomer B] | 0.0145 nM | – | – | 1,100,000 M^-1 sec^-1 | 967 M⁻¹ s⁻¹ | 1140 | 1550 M⁻¹ s⁻¹ | 710 | 967 M⁻¹ s⁻¹ | 1140 | 2570 M⁻¹ s⁻¹ | 430 | 0.000016 s⁻¹ | 1.1e+06 M⁻¹ s⁻¹ | 1
4 | CCOc1nc2ccc(NC(=O)CCNC(=O)OC(C)(C)C)c(C)c2c(=O)o1 [Example 2, 6-(N-tert-butyloxycarbonyl-β-alanyl)amino-5-methyl-2-ethoxy-4H-3,1-benzoxazin-4-one] | 1.1 nM | 0.000404 s⁻¹ | 365000 M⁻¹ s⁻¹ | – | 2860 M⁻¹ s⁻¹ | 130 | 200 M⁻¹ s⁻¹ | 1830 | 460 M⁻¹ s⁻¹ | 790 | 3500 M⁻¹ s⁻¹ | 100 | – | 365000 M⁻¹ s⁻¹ | 1
5 | CCOc1nc2ccc(NC(=O)CCN(C)C(=O)OC(C)(C)C)c(C)c2c(=O)o1 [Example 3, 6-(N-tert-butyloxycarbonyl-N-methyl-β-alanyl)-amino-5-methyl-2-ethoxy-3,1-benzoxazin-4-one] | 1.32 nM | 0.00042 s⁻¹ | 320000 M⁻¹ s⁻¹ | – | – | – | – | – | – | – | – | – | – | – | –
6 | CCOc1nc2ccc(N)c(CC)c2c(=O)o1 [Example 4] | 0.1 nM | 4.7e-05 s⁻¹ | 470000 M⁻¹ s⁻¹ | – | – | – | – | – | – | – | – | – | – | – | –
7 | CCOc1nc2ccc(NC(=O)CCN(C)C(=O)OC(C)(C)C)c(CC)c2c(=O)o1 [Example 5, 6-(N-tert-butyloxycarbonyl-N-methyl-β-alanyl)-amino-5-ethyl-2-ethoxy-3,1-benzoxazin-4-one] | 0.107 nM | 3e-05 s⁻¹ | 281000 M⁻¹ s⁻¹ | – | – | – | – | – | – | – | – | – | – | – | –
8 | CCOc1nc2ccc(NC(=O)CCN(C)S(=O)(=O)c3ccc(C)cc3)c(CC)c2c(=O)o1 [Example 6, 6-(N-4-methylbenzenesulfonyl-N-methyl-β-alanyl)-amino-5-ethyl-2-ethoxy-4H-3,1-benzoxazin-4-one] | 0.0933 nM | 6.9e-05 s⁻¹ | 745000 M⁻¹ s⁻¹ | – | 3450 M⁻¹ s⁻¹ | 220 | 80 M⁻¹ s⁻¹ | 9312 | 340 M⁻¹ s⁻¹ | 2190 | 11900 M⁻¹ s⁻¹ | 60 | – | 745000 M⁻¹ s⁻¹ | 1
9 | CCOc1nc2ccc(C(C)NC(=O)[C@H](C)NC(=O)OC(C)(C)C)c(C)c2c(=O)o1 (stereo partly drawn) [Example 8, 6-[1-(N-tert-butyloxycarbonyl-L-alanyl)-aminoethyl]-2-ethyloxy-5-methyl-4H-3,1-benzoxazin-4-one] | 0.0331 nM | 1.7e-05 s⁻¹ | 520000 M⁻¹ s⁻¹ | – | – | – | – | – | – | – | – | – | – | – | –
10 | CCOc1nc2cccc(C)c2c(=O)o1 [positive control, reference compound] | 0.513 nM | 7.2e-05 s⁻¹ | 140000 M⁻¹ s⁻¹ | – | – | – | – | – | – | – | – | – | – | – | –

Reference: patent US5428021A, “Human leukocyte elastase (HLE) inhibitors, and related pharmaceutical compositions and methods of use” (SRI International, priority 1994, dated 1995)
